Results published in patent EP4624497A1, “PHOSPHOEN[…] PROBE, PREPARATION METHOD THEREFOR AND APPLICATION THEREOF” (priority 2022, dated 2024).

System: 293 cells with optical probe plasmids expressed in the cytosol
Assay: dynamic monitoring of phosphoenolpyruvate in the cytosol with the optical probe
Format: cell-based
Conditions: 5 mM Oxalate added, detection continued for 30 minutes, HBSS solution
Description: • 1. pCDNA3.1+-based phosphoenolpyruvate optical probe plasmids were transfected into HEK293 by using the transfection reagent Lipofectamine2000 (Invitrogen) and incubated in a cell incubator at 37 °C with 5% CO2. After the exogenous gene was fully expressed for 24~36 hours, the fluorescence detection was performed. • 2. After induction of expression, adherent HEK293 cells were washed three times with PBS and placed in HBSS solution for fluorescence microscopy and microplate reader assays, respectively.
In this example, different localization signal peptides were used to fuse to the optical probe 254/255-TtPFK- I253K/Q254L/R255L/G256F-cpYFP-Y1S which was localized in different organelles.
Thirty-six hours after transfection of 293 cells with optical probe plasmids expressed in the cytosol, the cells were rinsed with PBS, placed in an HBSS solution, and the change in the ratio of the fluorescence intensity at an excitation of 420 nm and an emission of 528 nm to that at an excitation of 485 nm and an emission of 528 nm was detected in a 30-minute period.

`O=C(O)C(=O)O` [Oxalate] was tested, and the 485/420 ratio was “up to 3.5 times the initial value”.
